# Source: PubChem BioAssay (NCI)
# Where “and” joins values, the source holds several entries; their conditions need not be identical. Identical values can stand only once.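 How tested: cells in 96-well plates exposed to compound for 48 hours at five concentrations. GI50 = concentration required for 50% inhibition of growth. TGI marks complete inhibition of growth.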
# Assays:
# Assay in all cases: NCI anticancer screen, dose series, 48 h
# SW-620 colon = test system: SW-620 colon
# NCI-H522 lung = test system: NCI-H522 lung
# HCT-116 colon = test system: HCT-116 colon
# SK-MEL-28 melanoma = test system: SK-MEL-28 melanoma
# SNB-19 CNS = test system: SNB-19 CNS
# HT29 colon = test system: HT29 colon
# OVCAR-4 ovarian = test system: OVCAR-4 ovarian
# SF-268 CNS = test system: SF-268 CNS
# MDA-MB-435 = test system: MDA-MB-435
# MOLT-4 leukemia = test system: MOLT-4 leukemia
SMILES,TGI (SW-620 colon),TGI (NCI-H522 lung),TGI (HCT-116 colon),TGI (SK-MEL-28 melanoma),TGI (SNB-19 CNS),TGI (HT29 colon),TGI (OVCAR-4 ovarian),TGI (SF-268 CNS),TGI (MDA-MB-435),TGI (MOLT-4 leukemia),GI50 (SW-620 colon),GI50 (NCI-H522 lung),GI50 (HCT-116 colon),GI50 (SK-MEL-28 melanoma),GI50 (SNB-19 CNS),GI50 (HT29 colon),GI50 (OVCAR-4 ovarian),GI50 (SF-268 CNS),GI50 (MDA-MB-435),GI50 (MOLT-4 leukemia)
CC1=CC(=O)CC(C)(C)C1(O)/C=C/C(C)=C/C(=O)O (stereo not drawn),> 100 µM,> 100 µM,> 100 µM,> 100 µM,> 100 µM,> 100 µM,> 100 µM,> 100 µM,> 100 µM,> 100 µM,–,–,–,–,–,–,–,–,–,–
CCCOc1ccc(-c2nc(-c3ccc(N=Cc4ccc(N(CCOS(C)(=O)=O)CCOS(C)(=O)=O)cc4C)cc3)cs2)cc1,> 100 µM,4.99 µM,> 85.2 µM,> 100 µM,> 94.5 µM,> 73.9 µM,81.9 µM,77.8 µM,> 100 µM,66.6 µM,–,–,–,–,–,–,–,–,–,–
COc1c2ccoc2cc2oc(=O)ccc12,> 100 µM,> 100 µM,> 100 µM,> 100 µM,> 100 µM,> 100 µM,> 100 µM,> 100 µM,> 100 µM,> 100 µM,–,–,–,–,–,–,–,–,–,–
Fc1ccc(-c2nn3c(CNc4ccccc4)nnc3s2)cc1,> 100 µM,> 100 µM,> 100 µM,> 100 µM,> 100 µM,> 100 µM,> 100 µM,> 100 µM,51.6 µM,> 100 µM,40.6 µM,34.5 µM,26.5 µM,42.2 µM,33.6 µM,39.2 µM,90.7 µM,64.3 µM,18.7 µM,27 µM
COC(=O)[C@H]1[C@@H](O)[C@@]2(O)c3c(OC)cc(O[C@@H]4O[C@@H]([C@H](O)CO)CO[C@H]4OC)cc3O[C@@]2(c2ccc(OC)cc2)[C@@H]1c1ccccc1,0.186 µM,0.0241 µM,–,0.0119 µM,0.0384 µM,0.0142 µM,0.0484 µM,0.0425 µM,0.0143 µM,–,0.00605 µM,0.00344 µM,0.00371 µM,0.00321 µM,0.00277 µM,0.003 µM,0.00506 µM,0.00342 µM,0.00358 µM,0.0031 µM
O=C(c1ccc(OCCN2CCCCC2)cc1)c1c(-c2ccc(O)cc2)sc2cc(O)ccc12,22 µM and 39.2 µM,28.6 µM and 37.3 µM,14 µM and 42.7 µM,25.1 µM and 23.6 µM,30.5 µM and 34.2 µM,32.3 µM and 33.4 µM,20.5 µM and 36.8 µM,20.1 µM and 35.5 µM,4.58 µM and 19.7 µM,10.8 µM and 23.2 µM,7.64 µM and 13.4 µM,11 µM and 16.5 µM,3.68 µM and 8.5 µM,12.3 µM and 6.65 µM,13.7 µM and 15 µM,14.9 µM and 4.1 µM,7.8 µM and 12.1 µM,6.67 µM and 12.8 µM,1.94 µM and 4.2 µM,2.8 µM and 4.86 µM
O=C1/C=C/[C@@H](O)[C@@H]2C[C@@H](O)C[C@H]2/C=C/CCC[C@H](CCc2ccc(C(F)(F)F)cc2)O1,1.27 µM,0.775 µM,0.607 µM,0.361 µM,> 100 µM,2.1 µM,2.78 µM,> 100 µM,> 72.1 µM,0.832 µM,0.297 µM,0.282 µM,0.251 µM,0.0405 µM,0.383 µM,0.127 µM,0.198 µM,0.371 µM,0.243 µM,0.32 µM
CN1CCC(CNc2ccc3ncc(-c4cccc(OC(F)(F)F)c4)n3n2)CC1,4.77 µM and 6.09 µM,3.33 µM and 3.57 µM,3.94 µM and 4.33 µM,2.99 µM and 3.14 µM,16.5 µM and > 10 µM,4.49 µM and 5.15 µM,8.21 µM and > 10 µM,3.64 µM and > 10 µM,2.96 µM and 3.4 µM,9.15 µM and 5.73 µM,2.03 µM and 2.13 µM,1.64 µM and 1.52 µM,1.83 µM and 1.7 µM,1.55 µM and 1.61 µM,4.06 µM and 2.95 µM,1.75 µM and 1.85 µM,2.39 µM and 3.81 µM,1.57 µM and 3.2 µM,1.42 µM and 1.54 µM,2.12 µM and 1.45 µM
COC(=O)[C@H]1C(=O)[C@@]2(C)[C@H]([C@H](OC(=O)c3ccccc3)[C@]3(O)C[C@H](OC(=O)[C@H](O)[C@@H](NC(=O)c4ccc(F)cc4)c4ccccc4)C(C)=C1C3(C)C)[C@]1(OC(C)=O)CO[C@@H]1C[C@@H]2O,> 25 µM,> 7.4 µM,> 25 µM,22 µM,> 25 µM,> 25 µM,> 25 µM,> 25 µM,0.00604 µM,3.42 µM,0.00821 µM,0.0135 µM,0.00432 µM,0.0154 µM,0.0166 µM,0.00378 µM,0.633 µM,0.0151 µM,0.0025 µM,0.0101 µM
COC(=O)[C@@]1(Cc2ccccc2)[C@H]2c3cc(C(=O)N4CCCC4)n(Cc4ccc(OC)c(OC)c4)c3C[C@H]2CN1C(=O)c1ccccc1,13.4 µM,19.6 µM,13.8 µM,21.7 µM,> 50 µM,25 µM,> 50 µM,> 50 µM,32.8 µM,32.8 µM,6.92 µM,8.73 µM,7.28 µM,10.1 µM,17.4 µM,9.12 µM,16.4 µM,13.3 µM,11.7 µM,7.94 µM
C[C@H](N)C(=O)N[C@@H]1[C@H]2C(=C(O)C[C@@H](O)[C@@H]2O)C(=O)O[C@]1(C)C(Cl)Cl,6.6 µM and 3 µM,0.955 µM and 0.755 µM,1.85 µM and 1.33 µM,2.75 µM and 1.65 µM,6.02 µM and 1.72 µM,1.69 µM and 1.3 µM,3.03 µM and 0.841 µM,2.8 µM and 2.59 µM,3.42 µM and 0.86 µM,3.79 µM and 0.564 µM,0.221 µM,0.191 µM,0.205 µM,–,0.242 µM,0.282 µM,0.263 µM,0.15 µM,0.309 µM,0.186 µM and 0.13 µM
O=C(CSc1nc2ccccc2nc1-c1ccccc1)Nc1ccc(Cl)cc1,> 100 µM,74.3 µM,24 µM,> 100 µM,> 100 µM,> 100 µM,> 100 µM,51.3 µM,> 100 µM,> 100 µM,38.9 µM,15.3 µM,5.24 µM,60.8 µM,35.9 µM,25.1 µM,13.6 µM,15.5 µM,29.8 µM,> 100 µM
COc1cc(-c2nc(NC(C)=O)sc2-c2ccnc(NCCNS(=O)(=O)c3ccccc3)n2)ccc1Cl,> 100 µM,8.72 µM,35.7 µM,> 100 µM,> 100 µM,> 100 µM,> 100 µM,> 100 µM,3.45 µM,> 100 µM,4.37 µM,1.99 µM,3.17 µM,3.71 µM,6.51 µM,2.94 µM,3.58 µM,4.25 µM,0.799 µM,3.17 µM
COc1ccccc1-c1cc(/C=C2\C(=O)Nc3ncc(Br)cc32)cc(Br)c1O,> 25 µM,> 23.3 µM,> 25 µM,> 25 µM,> 25 µM,> 25 µM,> 25 µM,> 25 µM,> 25 µM,> 25 µM,19.4 µM,6.1 µM,10.2 µM,14.8 µM,12.5 µM,18.9 µM,8.96 µM,11.1 µM,7.47 µM,9.31 µM
C=CC(=O)N1C/C(=C\c2ccccc2)C(=O)/C(=C/c2ccccc2)C1,0.831 µM,3.49 µM,0.397 µM,3.78 µM,7.12 µM,2.87 µM,6.6 µM,5.61 µM,2.1 µM,4.5 µM,0.534 µM,0.348 µM,0.355 µM,–,–,0.528 µM,–,–,0.27 µM,0.562 µM
CC(C)CCSC1=CC(=O)c2ccccc2C1=O,8.91 µM,6.38 µM,2.89 µM,10.7 µM,> 100 µM,53.7 µM,3.05 µM,23.8 µM,13.8 µM,0.611 µM,2.59 µM,1.6 µM,1.42 µM,5.7 µM,30 µM,23.7 µM,1.57 µM,6.66 µM,3.88 µM,0.228 µM
N=C(N)/N=C(\N)c1c(-c2cc(O)ccc2O)nc2sccn12,39.4 µM,> 100 µM,35.9 µM,46 µM,> 100 µM,> 100 µM,> 100 µM,> 100 µM,35.3 µM,> 100 µM,19.9 µM,32.4 µM,17.3 µM,21.4 µM,> 100 µM,36.5 µM,33.9 µM,> 100 µM,18 µM,29.4 µM
CNC(=O)c1c(NC(=O)c2ccc(C(F)(F)F)cc2)sc2c1CCC(=O)C2,1.64 µM,1.92 µM,1.4 µM,3.67 µM,> 65.9 µM,5.27 µM,1.92 µM,> 37.9 µM,3.55 µM,4.01 µM,0.235 µM,0.251 µM,0.188 µM,0.864 µM,0.735 µM,0.555 µM,0.604 µM,0.995 µM,0.818 µM,0.47 µM
CCc1c2c(nc3cc4c(c(N)c13)OCO4)-c1cc3c(c(=O)n1C2)COC(=O)[C@]3(O)CC,> 100 µM,1.36 µM and 0.663 µM,24.6 µM,5.44 µM and 32.4 µM,0.183 µM,> 100 µM,> 100 µM,15.2 µM,2.01 µM and 1.96 µM,–,–,–,0.174 µM,0.473 µM and 0.249 µM,< 0.001 µM,0.0145 µM,0.13 µM and 0.35 µM,–,0.0241 µM and 0.0796 µM,< 0.001 µM
Cc1cc(C(=O)Nc2nc3cccc(Cl)c3n2[C@@H]2CCCCN(C(=O)/C=C/CN(C)C)C2)ccn1,31.5 µM,14.4 µM,19.5 µM,27 µM,31.2 µM,30.2 µM,26.4 µM,28.3 µM,23.3 µM,33.3 µM,14.6 µM,0.108 µM,6.5 µM,12.8 µM,12.9 µM,9.91 µM,7.18 µM,10.6 µM,9.49 µM,7.13 µM
CN[C@@H](C)C(=O)N[C@H]1CN(C(=O)CC(C)C)CC[C@H]2CC[C@@H](C(=O)NC(c3ccccc3)c3ccccc3)N2C1=O,> 100 µM,> 78.9 µM,> 100 µM,> 100 µM,> 100 µM,> 100 µM,8.42 µM,> 100 µM,> 100 µM,> 100 µM,> 100 µM,17.6 µM,> 100 µM,> 100 µM,> 100 µM,53.2 µM,0.664 µM,> 100 µM,> 100 µM,> 86.7 µM
COc1cc2c(F)nccc2cc1C(=O)N[C@@H](c1ccc(F)c(Cl)c1)[C@@H]1C[C@@H](O)CN1,23.6 µM,26.7 µM,17.2 µM,20.2 µM,18.5 µM,19.6 µM,24.6 µM,21.6 µM,17 µM,> 41.6 µM,6.39 µM,12 µM,3.31 µM,4.48 µM,0.847 µM,2.35 µM,8.59 µM,3.64 µM,2 µM,0.188 µM
C#CCSc1n[nH]c(-c2ccco2)n1,> 100 µM,> 100 µM,> 100 µM,> 100 µM,> 100 µM,> 100 µM,> 100 µM,> 100 µM,> 100 µM,> 100 µM,–,–,–,–,–,–,–,–,–,–
NC(=O)C1c2ccccc2C=Cc2ccccc21,> 100 µM,> 100 µM,> 100 µM,> 100 µM,> 100 µM,> 100 µM,> 100 µM,> 100 µM,> 100 µM,> 100 µM,> 100 µM,> 100 µM,> 100 µM,> 100 µM,> 100 µM,> 100 µM,> 100 µM,> 100 µM,73.3 µM,> 100 µM
COc1cccc(Cn2c(-c3nonc3N)nc3ccccc32)c1,> 100 µM,0.688 µM,> 100 µM,> 91.8 µM,> 100 µM,–,> 65.9 µM,> 100 µM,0.549 µM,> 100 µM,0.372 µM,0.245 µM,0.461 µM,0.781 µM,0.907 µM,0.345 µM,2.26 µM,0.844 µM,0.201 µM,0.632 µM
